Reference: ChEMBL document CHEMBL5463729, “Data for DCP probe BAY 1753011” (2023)

Key:
[1] = target: Sodium-dependent dopamine transporter (Homo sapiens) (UniProt Q01959); details: Compound concentration 10.0 uM
[2] = target: STE20/SPS1-related proline-alanine-rich protein kinase (Homo sapiens) (UniProt Q9UEW8); assay: Inhibition of STK39(h) at 10.0 µM in the Eurofins Kinase panel; details: Compound concentration 10.0 uM
[3] = target: Inhibitor of nuclear factor kappa-B kinase subunit alpha (Homo sapiens) (UniProt O15111); assay: Inhibition of IKKalpha(h) at 10.0 µM in the Eurofins Kinase panel; details: Compound concentration 10.0 uM
[4] = target: Glycogen synthase kinase-3 alpha (Homo sapiens) (UniProt P49840); assay: Inhibition of GSK3alpha(h) at 10.0 µM in the Eurofins Kinase panel; details: Compound concentration 10.0 uM
[5] = target: Mitogen-activated protein kinase 14 (Homo sapiens) (UniProt Q16539); assay: Inhibition of Protein Serine/Threonine Kinase, MAPK14 (p38α) at 10 µM in the Eurofins-Panlabs enzyme assay (Eurofins_assay_176610); parameters: substrate with concentration; details: Compound concentration 10.0 uM
[6] = target: Sigma intracellular receptor 2 (Homo sapiens) (UniProt Q5BJF2); assay: Inhibition of Sigma 2 at 10 µM in the Eurofins-Panlabs radioligand binding assay (Eurofins_assay_278200); parameters: ligand concentration 3 nM; details: Rattus norvegicus; Compound concentration 10.0 uM
MAO-A = MAO-A (Homo sapiens, UniProt P21397); assay: Inhibition of Monoamine Oxidase MAO-A at compound concentration of 10.0 uM in the Eurofins-Panlabs enzyme assay (Eurofins_assay_140010); parameters: substrate with concentration 50 uM Kynuramine, incubation time 60 min, incubation temperature 37 C; details: human recombinant MAO-A expressed in insect Hi5 cells, probe Kynuramine, compound concentration 10 uM
[7] = target: Protein kinase C alpha type (Homo sapiens) (UniProt P17252); assay: Inhibition of Protein Serine/Threonine Kinase, PRKCA (PKCα) at 10 µM in the Eurofins-Panlabs enzyme assay (Eurofins_assay_180010); parameters: substrate with concentration Histone, incubation time 10 min, incubation temperature 25 °C; details: Compound concentration 10.0 uM
[8] = target: Mitogen-activated protein kinase 14 (Homo sapiens) (UniProt Q16539); assay: Inhibition of SAPK2a(h) at 10.0 µM in the Eurofins Kinase panel; details: Compound concentration 10.0 uM
[9] = target: Beta-1 adrenergic receptor (Homo sapiens) (UniProt P08588); details: Compound concentration 10.0 uM
Rattus norvegicus = species on record: Rattus norvegicus; assay: Inhibition of Glycine, Strychnine-Sensitive at 10 µM in the Eurofins-Panlabs radioligand binding assay (Eurofins_assay_239000); details: Compound concentration 10.0 uM
[10] = target: 5-hydroxytryptamine receptor 1B (Homo sapiens) (UniProt P28222); assay: Inhibition of Serotonin (5-Hydroxytryptamine) 5-HT1B at 10 µM in the Eurofins-Panlabs radioligand binding assay (Eurofins_assay_271200); details: Compound concentration 10.0 uM
[11] = target: Cathepsin G (Homo sapiens) (UniProt P08311); assay: Inhibition of Peptidase, CTSG (Cathepsin G) at 10 µM in the Eurofins-Panlabs enzyme assay (Eurofins_assay_112510); parameters: substrate with concentration; details: Compound concentration 10.0 uM
[12] = target: Acetylcholinesterase (Homo sapiens) (UniProt P22303); details: Compound concentration 10.0 uM
[13] = target: T1, Muscarinic acetylcholine receptor M1 (Homo sapiens) (UniProt P11229); details: Compound concentration 10.0 uM
T1 sequence (whole entry): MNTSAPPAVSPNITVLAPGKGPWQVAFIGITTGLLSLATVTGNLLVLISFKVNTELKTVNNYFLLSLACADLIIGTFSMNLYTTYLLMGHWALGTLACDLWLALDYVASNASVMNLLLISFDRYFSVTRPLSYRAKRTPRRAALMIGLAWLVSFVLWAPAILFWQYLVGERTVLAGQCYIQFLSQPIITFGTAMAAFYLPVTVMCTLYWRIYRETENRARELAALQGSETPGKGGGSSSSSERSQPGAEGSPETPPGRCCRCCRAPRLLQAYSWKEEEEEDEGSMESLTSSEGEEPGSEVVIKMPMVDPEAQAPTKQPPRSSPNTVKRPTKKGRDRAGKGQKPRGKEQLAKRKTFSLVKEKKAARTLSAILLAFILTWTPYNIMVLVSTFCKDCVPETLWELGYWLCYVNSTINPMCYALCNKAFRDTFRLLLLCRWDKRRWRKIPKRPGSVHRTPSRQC

[14] = target: Sigma non-opioid intracellular receptor 1 (Homo sapiens) (UniProt Q99720); assay: Inhibition of Sigma 1 at 10 µM in the Eurofins-Panlabs radioligand binding assay (Eurofins_assay_278110); parameters: ligand concentration 8 nM; details: Compound concentration 10.0 uM
[15] = target: Platelet-activating factor receptor (Homo sapiens) (UniProt P25105); assay: Inhibition of Platelet Activating Factor (PAF) at 10 µM in the Eurofins-Panlabs radioligand binding assay (Eurofins_assay_265010); details: Compound concentration 10.0 uM
[16] = target: Cannabinoid receptor 1 (Homo sapiens) (UniProt P21554); details: Compound concentration 10.0 uM
[17] = target: Cysteinyl leukotriene receptor 1 (Homo sapiens) (UniProt Q9Y271); assay: Inhibition of Leukotriene, Cysteinyl CysLT1 at 10 µM in the Eurofins-Panlabs radioligand binding assay (Eurofins_assay_250460); parameters: ligand concentration 0.3 nM, non-specific ligand with concentration 0.3 µM Leukotriene D4, incubation time 30 min, incubation temperature 25 °C; details: Compound concentration 10.0 uM
[18] = target: T2, Alpha-1D adrenergic receptor (Homo sapiens) (UniProt P25100); assay: Inhibition of Adrenergic alpha1D at 10 µM in the Eurofins-Panlabs radioligand binding assay (Eurofins_assay_203400); details: Compound concentration 10.0 uM
T2 sequence (whole entry): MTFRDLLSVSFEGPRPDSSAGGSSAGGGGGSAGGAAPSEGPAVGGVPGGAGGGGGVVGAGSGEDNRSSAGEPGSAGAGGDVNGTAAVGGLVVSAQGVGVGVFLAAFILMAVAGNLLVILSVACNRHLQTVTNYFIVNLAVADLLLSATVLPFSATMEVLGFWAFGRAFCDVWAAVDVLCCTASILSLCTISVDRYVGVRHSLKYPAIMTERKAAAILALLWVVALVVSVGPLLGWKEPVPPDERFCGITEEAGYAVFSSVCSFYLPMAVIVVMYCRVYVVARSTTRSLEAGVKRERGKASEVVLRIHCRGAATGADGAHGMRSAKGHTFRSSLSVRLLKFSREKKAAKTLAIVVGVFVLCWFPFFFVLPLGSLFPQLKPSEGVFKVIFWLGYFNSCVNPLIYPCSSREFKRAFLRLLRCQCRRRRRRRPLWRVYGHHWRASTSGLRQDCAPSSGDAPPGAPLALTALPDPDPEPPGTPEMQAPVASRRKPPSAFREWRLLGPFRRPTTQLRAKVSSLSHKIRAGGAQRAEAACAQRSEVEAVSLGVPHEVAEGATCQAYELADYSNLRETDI

Oryctolagus cuniculus = species on record: Oryctolagus cuniculus; assay: Inhibition of Purinergic P2X at 10 µM in the Eurofins-Panlabs radioligand binding assay (Eurofins_assay_268700); type: protein assay; details: Compound concentration 10.0 uM
hERG (KCNH2) = hERG (KCNH2) (Homo sapiens, UniProt Q12809); assay: Inhibition of Potassium Channel hERG at 10 µM in the Eurofins-Panlabs radioligand binding assay (Eurofins_assay_265900); parameters: ligand concentration 1.5 nM, non-specific ligand with concentration Astemizole, incubation time 60 min, incubation temperature 25 °C; details: HEK-293 cells expressing human recombinant hERG, probe [3H] Astemizole, compound concentration 10 uM
[19] = target: 5-hydroxytryptamine receptor 4 (Homo sapiens) (UniProt Q13639); assay: Inhibition of Serotonin (5-Hydroxytryptamine) 5-HT4 at 10 µM in the Eurofins-Panlabs radioligand binding assay (Eurofins_assay_272000); details: Cavia porcellus; Compound concentration 10.0 uM
5-hydroxytryptamine receptor 4 (Homo sapiens), sequence (Q13639 whole entry): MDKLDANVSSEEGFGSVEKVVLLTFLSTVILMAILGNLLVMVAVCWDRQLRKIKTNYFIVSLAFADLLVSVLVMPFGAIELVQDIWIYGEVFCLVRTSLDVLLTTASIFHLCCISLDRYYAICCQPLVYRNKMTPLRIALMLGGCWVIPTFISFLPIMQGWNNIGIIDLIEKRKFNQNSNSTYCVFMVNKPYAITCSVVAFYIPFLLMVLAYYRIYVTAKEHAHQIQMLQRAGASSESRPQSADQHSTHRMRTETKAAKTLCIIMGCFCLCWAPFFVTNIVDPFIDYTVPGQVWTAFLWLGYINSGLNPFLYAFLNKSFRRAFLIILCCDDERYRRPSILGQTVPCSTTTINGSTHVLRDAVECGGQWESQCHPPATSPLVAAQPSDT

Mitogen-activated protein kinase 14 (Homo sapiens), sequence (Q16539 whole entry): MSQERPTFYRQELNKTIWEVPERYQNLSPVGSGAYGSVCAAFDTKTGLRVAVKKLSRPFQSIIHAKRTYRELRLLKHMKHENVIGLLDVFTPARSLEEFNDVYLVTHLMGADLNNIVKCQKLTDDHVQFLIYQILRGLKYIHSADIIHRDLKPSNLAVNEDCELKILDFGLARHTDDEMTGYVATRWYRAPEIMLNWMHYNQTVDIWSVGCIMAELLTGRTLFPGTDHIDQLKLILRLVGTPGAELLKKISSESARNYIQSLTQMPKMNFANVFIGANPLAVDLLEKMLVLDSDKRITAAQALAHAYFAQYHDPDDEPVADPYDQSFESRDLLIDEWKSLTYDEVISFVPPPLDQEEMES
Sodium-dependent dopamine transporter (Homo sapiens), sequence (Q01959 whole entry): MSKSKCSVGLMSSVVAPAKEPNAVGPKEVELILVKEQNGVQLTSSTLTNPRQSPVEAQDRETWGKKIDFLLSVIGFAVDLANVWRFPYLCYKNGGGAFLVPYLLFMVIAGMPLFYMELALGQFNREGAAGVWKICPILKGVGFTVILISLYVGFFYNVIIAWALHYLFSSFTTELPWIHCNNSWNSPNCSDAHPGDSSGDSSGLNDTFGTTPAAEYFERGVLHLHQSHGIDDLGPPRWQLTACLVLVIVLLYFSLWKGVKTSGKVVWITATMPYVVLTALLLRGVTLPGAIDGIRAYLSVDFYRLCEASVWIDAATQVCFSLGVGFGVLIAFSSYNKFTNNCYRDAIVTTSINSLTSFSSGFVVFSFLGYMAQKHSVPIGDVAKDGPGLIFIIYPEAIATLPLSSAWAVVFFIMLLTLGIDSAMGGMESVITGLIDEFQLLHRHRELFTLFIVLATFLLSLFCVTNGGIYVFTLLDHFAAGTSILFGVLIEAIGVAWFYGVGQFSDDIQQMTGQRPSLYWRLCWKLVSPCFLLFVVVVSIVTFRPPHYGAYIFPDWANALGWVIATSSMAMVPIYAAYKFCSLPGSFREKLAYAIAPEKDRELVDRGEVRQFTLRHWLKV
Beta-1 adrenergic receptor (Homo sapiens), sequence (P08588 whole entry, looked up): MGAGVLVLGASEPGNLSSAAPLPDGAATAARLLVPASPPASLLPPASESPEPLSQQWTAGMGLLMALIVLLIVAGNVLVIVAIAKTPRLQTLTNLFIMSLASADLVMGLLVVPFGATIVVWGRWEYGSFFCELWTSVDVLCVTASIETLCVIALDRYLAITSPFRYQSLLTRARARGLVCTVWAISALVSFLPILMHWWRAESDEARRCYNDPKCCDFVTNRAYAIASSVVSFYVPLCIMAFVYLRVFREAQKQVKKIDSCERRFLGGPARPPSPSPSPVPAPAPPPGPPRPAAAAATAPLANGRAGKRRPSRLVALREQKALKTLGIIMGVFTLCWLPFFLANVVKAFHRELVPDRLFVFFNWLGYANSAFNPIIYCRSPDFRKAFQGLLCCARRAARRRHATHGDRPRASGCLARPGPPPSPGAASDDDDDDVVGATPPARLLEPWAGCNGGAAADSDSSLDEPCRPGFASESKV
MAO-A, sequence (P21397 whole entry): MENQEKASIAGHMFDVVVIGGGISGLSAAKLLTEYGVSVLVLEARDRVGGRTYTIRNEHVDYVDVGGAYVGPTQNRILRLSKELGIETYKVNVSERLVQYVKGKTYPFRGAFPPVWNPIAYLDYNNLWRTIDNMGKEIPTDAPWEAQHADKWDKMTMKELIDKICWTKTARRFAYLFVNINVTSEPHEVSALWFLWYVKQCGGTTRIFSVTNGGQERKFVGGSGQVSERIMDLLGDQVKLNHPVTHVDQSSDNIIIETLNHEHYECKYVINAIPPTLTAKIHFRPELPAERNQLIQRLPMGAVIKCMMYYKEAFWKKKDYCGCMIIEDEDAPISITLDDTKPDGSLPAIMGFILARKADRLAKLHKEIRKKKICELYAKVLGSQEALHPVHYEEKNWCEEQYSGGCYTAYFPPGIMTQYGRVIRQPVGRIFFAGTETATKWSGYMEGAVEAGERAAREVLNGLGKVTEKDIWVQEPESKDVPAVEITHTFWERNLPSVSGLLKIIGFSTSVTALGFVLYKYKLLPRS
Cannabinoid receptor 1 (Homo sapiens), sequence (P21554 whole entry): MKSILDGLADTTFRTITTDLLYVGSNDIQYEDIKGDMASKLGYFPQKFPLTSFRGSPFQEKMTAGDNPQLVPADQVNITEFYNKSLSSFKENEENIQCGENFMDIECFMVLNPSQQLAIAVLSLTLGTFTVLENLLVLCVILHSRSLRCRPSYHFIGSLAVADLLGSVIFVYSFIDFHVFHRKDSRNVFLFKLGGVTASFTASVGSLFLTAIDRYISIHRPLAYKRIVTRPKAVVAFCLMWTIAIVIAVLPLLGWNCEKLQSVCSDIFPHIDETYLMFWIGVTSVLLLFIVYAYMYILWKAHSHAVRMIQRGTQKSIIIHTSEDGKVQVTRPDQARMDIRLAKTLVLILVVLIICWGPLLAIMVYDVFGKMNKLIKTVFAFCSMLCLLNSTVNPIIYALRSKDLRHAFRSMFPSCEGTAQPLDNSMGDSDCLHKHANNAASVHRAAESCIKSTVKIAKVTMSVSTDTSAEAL
Glycogen synthase kinase-3 alpha (Homo sapiens), sequence (P49840 2-483 limits assumed): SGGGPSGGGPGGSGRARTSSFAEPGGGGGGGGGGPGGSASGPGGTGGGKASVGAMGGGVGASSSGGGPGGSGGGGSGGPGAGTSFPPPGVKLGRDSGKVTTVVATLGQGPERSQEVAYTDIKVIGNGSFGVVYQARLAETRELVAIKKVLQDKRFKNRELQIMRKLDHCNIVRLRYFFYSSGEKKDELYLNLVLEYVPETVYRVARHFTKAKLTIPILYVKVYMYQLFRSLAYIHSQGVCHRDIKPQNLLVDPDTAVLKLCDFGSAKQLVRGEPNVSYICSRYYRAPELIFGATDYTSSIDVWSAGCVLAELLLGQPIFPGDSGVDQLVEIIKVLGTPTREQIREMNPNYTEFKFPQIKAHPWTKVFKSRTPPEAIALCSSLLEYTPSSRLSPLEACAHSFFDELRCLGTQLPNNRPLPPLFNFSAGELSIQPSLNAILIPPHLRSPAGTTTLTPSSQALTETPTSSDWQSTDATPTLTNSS
Sigma non-opioid intracellular receptor 1 (Homo sapiens), sequence (Q99720 whole entry): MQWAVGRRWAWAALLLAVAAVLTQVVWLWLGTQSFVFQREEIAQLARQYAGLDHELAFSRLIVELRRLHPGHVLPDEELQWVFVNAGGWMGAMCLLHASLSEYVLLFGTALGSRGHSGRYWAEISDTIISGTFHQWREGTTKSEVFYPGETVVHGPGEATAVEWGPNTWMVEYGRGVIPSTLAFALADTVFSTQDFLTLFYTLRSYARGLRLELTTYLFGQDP
Acetylcholinesterase (Homo sapiens), sequence (P22303 whole entry): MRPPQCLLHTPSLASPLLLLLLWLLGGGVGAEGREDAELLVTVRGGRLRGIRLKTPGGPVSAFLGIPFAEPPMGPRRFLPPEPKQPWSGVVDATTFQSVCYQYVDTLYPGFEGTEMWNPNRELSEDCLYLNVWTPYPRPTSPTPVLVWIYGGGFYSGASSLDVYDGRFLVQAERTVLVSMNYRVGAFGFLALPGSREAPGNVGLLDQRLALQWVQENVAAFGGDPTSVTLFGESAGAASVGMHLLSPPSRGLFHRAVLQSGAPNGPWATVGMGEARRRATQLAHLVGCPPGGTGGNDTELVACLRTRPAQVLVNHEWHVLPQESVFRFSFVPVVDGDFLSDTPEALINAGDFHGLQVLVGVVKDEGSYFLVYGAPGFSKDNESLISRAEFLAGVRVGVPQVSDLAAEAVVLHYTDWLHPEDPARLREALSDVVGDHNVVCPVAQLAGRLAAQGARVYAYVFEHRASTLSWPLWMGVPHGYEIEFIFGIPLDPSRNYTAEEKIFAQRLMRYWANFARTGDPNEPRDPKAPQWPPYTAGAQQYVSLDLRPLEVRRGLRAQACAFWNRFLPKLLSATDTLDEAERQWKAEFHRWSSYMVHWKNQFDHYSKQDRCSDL

SMILES: O=c1n(Cc2cncn2-c2cccc(Cl)c2)nc(-c2ccc(Cl)cc2)n1C[C@H](O)C(F)(F)F
- inhibition [1]: 4.92%
- inhibition [2]: -4.72%
- inhibition [3]: -2.69%
- inhibition [4]: -1.7%

SMILES: C[C@H](O)c1nc(Cn2nc(-c3ccc(Cl)cc3)n(C[C@H](O)C(F)(F)F)c2=O)nn1-c1cccc(Cl)c1 [PECAVAPTAN]
- inhibition [5]: -1%
- inhibition [6]: 5%
- inhibition at 60 min, 10 µM (MAO-A): -3% (not active)
- inhibition [7]: -2%
- inhibition [8]: -8.61%
- inhibition [9]: -7.44%
- inhibition (Rattus norvegicus): 12%
- inhibition [10]: -5%
- inhibition [11]: 0%
- inhibition [12]: 2%
- inhibition [13]: 4.34%
- inhibition [14]: 15%
- inhibition [15]: 17%
- inhibition [16]: 34%
- inhibition [17]: 5%
- inhibition [18]: 1%
- inhibition (Oryctolagus cuniculus): 18%
- inhibition at 60 min, 10 µM (hERG (KCNH2)): -3% (not active)
- inhibition [19]: 19%
